For test [1], the target named is Neuraminidase (Influenza A virus (strain A/USSR/90/1977 H1N1), UniProt P03469, H274Y).
Test [2] deals with Neuraminidase (Influenza A virus (strain A/USSR/90/1977 H1N1)), P03469 [H274Y]. The test is described as follows: Induction of drug resistance in influenza A virus H1N1 expressing neuraminidase H274Y mutant assessed as reduction in susceptibility relative to control. Format: functional. Also on record: scale not given: the % may be the effect or the level left.
The nature of test [3]: Induction of drug resistance in influenza A virus H3N1 expressing neuraminidase N294S mutant assessed as reduction in susceptibility relative to control. Format: functional. On the set-up: scale not given: the % may be the effect or the level left.
Test [4] can be described thus: Induction of drug resistance in influenza A virus H1N1 expressing neuraminidase I222R mutant assessed as reduction in susceptibility relative to control. Format: functional. On the set-up: scale not given: the % may be the effect or the level left.
A short description of test [5]: Induction of drug resistance in influenza A virus H1N1 expressing neuraminidase S246N mutant assessed as reduction in susceptibility relative to control. Format: functional. On the set-up: scale not given: the % may be the effect or the level left.

One may read the IC50 as the concentration at which inhibition is half-maximal.

As to `CC(=O)N[C@@H]1[C@@H](N)CC(C(=O)O)=C[C@H]1OC1CCSC1` (stereo not given in full), in test [1], the IC50 stood at 68 nM.

As to `CCOC(=O)C1=C[C@@H](OC(CC)CC)[C@H](NC(C)=O)[C@@H](N)C1` [OSELTAMIVIR], the Activity in test [2] is < 3.5%; in test [3], <3.5%; in test [4], <3.5%; in test [5], <3.5%.

Values taken from ChEMBL document CHEMBL5331047 (Eur J Med Chem, 2022).
